The target in experiment [1] is recombinant human SOS1 polypeptide (amino acids 560-1049) (Homo sapiens (Human), UniProt Q07889). Briefly: biochemical. The experiment is classed as binding. Conditions: read-out: Ki, Inhibition of Labeled Tracer Binding to SOS1.
The test system of experiment [2] is pERK in MKN1 cells. Briefly: cells. Type of experiment: cell-based.
Setting [3] is: HTRF displacement, Cy5 labelled tracer, Morrison equation for competitive binding.
The mark [4] stands for this setting: Homo sapiens, MKN-1, pERK inhibition, In-Cell Western, MKN1 or H358 cells (Table 24 does not say which), 0.5-1 hour incubation, read-out: IC50.

Counter-ions that a name gives are not always drawn. Like-named read-outs stand apart in the source and are kept apart here.

recombinant human SOS1 polypeptide (amino acids 560-1049), sequence (Q07889 560-1049): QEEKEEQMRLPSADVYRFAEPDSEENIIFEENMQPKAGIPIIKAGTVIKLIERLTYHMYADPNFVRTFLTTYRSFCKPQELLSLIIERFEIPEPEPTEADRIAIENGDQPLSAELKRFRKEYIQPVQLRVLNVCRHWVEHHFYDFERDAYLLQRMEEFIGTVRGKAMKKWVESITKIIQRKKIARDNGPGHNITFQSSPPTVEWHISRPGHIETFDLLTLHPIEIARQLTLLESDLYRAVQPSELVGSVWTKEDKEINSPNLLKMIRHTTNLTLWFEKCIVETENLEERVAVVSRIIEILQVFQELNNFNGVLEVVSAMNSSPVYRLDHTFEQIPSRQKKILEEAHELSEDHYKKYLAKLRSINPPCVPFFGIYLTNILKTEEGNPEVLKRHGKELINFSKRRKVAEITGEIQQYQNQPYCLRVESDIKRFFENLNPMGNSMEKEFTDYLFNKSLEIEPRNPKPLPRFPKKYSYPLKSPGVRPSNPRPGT

Turning to `Cc1c([C@@H](C)Nc2nncc3ccc(N4CCn5c(cnc5C)C4)cc23)cccc1C(F)(F)F` [Example 1-37, (R)-N-(1-(2-methyl-3-(trifluoromethyl)phenyl)ethyl)-7-(3-methyl-5,6-dihydroimidazo[1,5-a]pyrazin-7(8H)-yl)phthalazin-1-amine], the Ki (commonly the dissociation constant of the complex between target and ligand, obtained from inhibition or displacement) in experiment [1] (setting [3]) stood at 0.25 nM. In experiment [2] (setting [4]), the 50% inhibitory concentration (IC50) (in general, the concentration at which inhibition is half-maximal) amounted to 131 nM.
In the same order, the values of `COc1cc2c(N[C@H](C)c3ccc(-c4ccccc4CN(C)C)s3)nnc(C(F)(F)F)c2cc1OC` [Example 5-4, (R)—N-(1-(5-(2-((dimethylamino)methyl)phenyl)thiophen-2-yl)ethyl)-6,7-dimethoxy-4-(trifluoromethyl)phthalazin-1-amine] are 47.9 nM and 1620 nM.
In the same order, the values of `Cc1c(C#N)cccc1[C@@H](C)Nc1nnc(C)c2cnc(N3CC4(CCN(C)C4)C3)cc12` [Example 12-51] are 0.79 nM and 48 nM.
In the same order, the values of `Cc1c(C(F)F)cccc1[C@@H](C)Nc1nnc(C)c2cnc(N3CCN(c4cnn(C)c4)CC3)cc12` [Example 12-59] are 0.47 nM and 19 nM.
With `Cc1c([C@@H](C)Nc2nnc(C)c3ccc(OC[C@@H]4CCCN4C)cc23)cccc1C(F)(F)F` [Example 10-24, 4-methyl-N-((R)-1-(2-methyl-3-(trifluoromethyl)phenyl)ethyl)-7-(((S)-1-methylpyrrolidin-2-yl)methoxy)phthalazin-1-amine hydrochloride salt], in experiment [1], the Ki is 1.34 nM. In experiment [2] (Homo sapiens, MKN-1), the IC50 was 69 nM.
As to `Cc1c([C@@H](C)Nc2nnc(C)c3ccc(N4CCNC[C@H](F)C4)cc23)cccc1C(F)(F)F` [Example 10-62, 7-((S)-6-fluoro-1,4-diazepan-1-yl)-4-methyl-N-((R)-1-(2-methyl-3-(trifluoromethyl)phenyl)ethyl)phthalazin-1-amine Hydrochloride salt], the Ki in experiment [1] turned out to be 0.9 nM. For the same compound, half-maximal inhibition in experiment [2] (Homo sapiens, MKN-1) (IC50) required 76 nM.
Take `Cc1nnc(N[C@H](C)c2cccc(C(F)(F)F)c2F)c2cc(N3CCC(N(C)C)CC3)ncc12` [Example 12-64]: the Ki in experiment [1] (setting [3]) came out at 0.51 nM. Also, in experiment [2] (setting [4]), the IC50 is 29 nM.
`Cc1c(C#N)cc(F)cc1[C@@H](C)Nc1nnc(C)c2cnc(N3CC4CC(C3)O4)cc12` [Example 12-106]: in experiment [1] (setting [3]), the Ki came to 11.1 nM. Moreover, the IC50 in experiment [2] (setting [4]) turned out to be 114 nM.
In the same order, the values of `Cc1c([C@@H](C)Nc2nnc(C)c3ccc(N4CCN5C(=O)CC[C@H]5C4)cc23)cccc1C(F)(F)F` [Example 10-13, (S)-2-(1-methyl-4-(((R)-1-(2-methyl-3-(trifluoromethyl)phenyl)ethyl)amino)phthalazin-6-yl)hexahydropyrrolo[1,2-a]pyrazin-6(2H)-one] are 0.49 nM and 39 nM.
The matching figures for `Cc1nnc(N[C@H](C)c2cccc(F)c2F)c2cc(N3CCN4CCOC[C@@H]4C3)ncc12` [Example 12-75]: 14 nM and 87 nM.
For `Cc1c(C#N)cccc1[C@@H](C)Nc1nnc(CN(C)C)c2cnc(N3C[C@H]4C[C@@H]3CO4)cc12` [Example 14-4, 3-((R)-1-((7-((1R,4R)-2-oxa-5-azabicyclo[2.2.1]heptan-5-yl)-4-((dimethylamino)methyl)pyrido[3,4-d]pyridazin-1-yl)amino)ethyl)-2-methylbenzonitrile], the Ki in experiment [1] (setting [3]) turned out to be 8.55 nM. Further, in experiment [2] (setting [4]), the IC50 came out at 89 nM.
As for `Cc1c([C@@H](C)Nc2nnc(C)c3cnc(N4C[C@H]5CC[C@@H]4CN5C)cc23)cccc1C(F)(F)F` [Example 12-26], the Ki in experiment [1] (setting [3]) amounted to 0.45 nM. Moreover, the IC50 in experiment [2] (setting [4]) came out at 27 nM.
The matching figures for `Cc1c([C@@H](C)Nc2nncc3ccc(N4CC5(CC(N(C)C)C5)C4)cc23)cccc1C(F)(F)F` [Example 1-32, (R)-7-(6-(dimethylamino)-2-azaspiro[3.3]heptan-2-yl)-N-(1-(2-methyl-3-(trifluoromethyl)phenyl)ethyl)phthalazin-1-amine]: 0.42 nM and 101 nM.
In the same order, the values of `Cc1c([C@@H](C)Nc2nnc(C)c3cnc(N4CC(C)(O)C4)cc23)cccc1C(F)(F)F` [Example 12-21] are 1.32 nM and 57 nM.
In the same order, the values of `Cc1c([C@@H](C)Nc2nnc(C)c3ccc(N4CC(C)(O)C4)cc23)cccc1C(F)(F)F` [Example 10-47, (R)-3-methyl-1-(1-methyl-4-((1-(2-methyl-3-(trifluoromethyl)phenyl)ethyl)amino)phthalazin-6-yl)azetidin-3-ol] are 1.19 nM and 55 nM.
With `Cc1c(C#N)cccc1[C@@H](C)Nc1nnc(C)c2ccc(N3CCC(N(C)C)CC3)cc12` [Example 10-57, (R)-3-(1-((7-(4-(dimethylamino)piperidin-1-yl)-4-methylphthalazin-1-yl)amino)ethyl)-2-methylbenzonitrile Formate salt], in experiment [1], the Ki was 0.75 nM. Besides, half-maximal inhibition in experiment [2] (Homo sapiens, MKN-1) (IC50) was put at 46 nM.
In the case of `Cc1c([C@@H](C)Nc2nnc(C)c3cnc(N4CCC4)cc23)cccc1C(F)(F)F` [Example 12-38], the Ki in experiment [1] (setting [3]) came out at 1.29 nM. Also, the IC50 in experiment [2] (setting [4]) is 97 nM.
The matching figures for `Cc1c(C#N)cccc1[C@@H](C)Nc1nnc(C)c2cnc(N3CC(C)(O)C3)cc12` [Example 12-30]: 2.63 nM and 54 nM.
`Cc1nnc(N[C@H](C)c2cccc(C(F)F)c2F)c2cc(N3CCN4CCOC[C@@H]4C3)ccc12` [Example 10-86, N-((R)-1-(3-(difluoromethyl)-2-fluorophenyl)ethyl)-7-((S)-hexahydropyrazino[2,1-c][1,4]oxazin-8(1H)-yl)-4-methylphthalazin-1-amine Formate salt]: the Ki in experiment [1] came out at 1.51 nM. The compound also registered an IC50 in experiment [2] (Homo sapiens, MKN-1) of 21 nM.
Regarding `Cc1c([C@@H](C)Nc2nnc(C)c3ccc(N4CCC5(CCCN5)CC4)cc23)cccc1C(F)(F)F` [Example 10-35, (R)-4-methyl-N-(1-(2-methyl-3-(trifluoromethyl)phenyl)ethyl)-7-(1,8-diazaspiro[4.5]decan-8-yl)phthalazin-1-amine], the Ki in experiment [1] (setting [3]) amounted to 0.31 nM. In addition, the IC50 in experiment [2] (pERK inhibition, In-Cell Western, MKN1 or H358 cells (Table 24 does not say which), 0.5-1 hour incubation, read-out: IC50) turned out to be 1000 nM.
With `Cc1cccc([C@@H](C)Nc2nnc(C)c3cnc(N4CC(C)(O)C4)cc23)c1F` [Example 12-132], the Ki in experiment [1] (setting [3]) is 11 nM. Further, in experiment [2] (setting [4]), the IC50 came to 76 nM.
The matching figures for `Cc1c([C@@H](C)Nc2nncc3ccc(OC4CCN(C)C4(C)C)cc23)cccc1C(F)(F)F` (stereo partly drawn) [Example 2-5, N-((R)-1-(2-methyl-3-(trifluoromethyl)phenyl)ethyl)-7-((1,2,2-trimethylpyrrolidin-3-yl)oxy)phthalazin-1-amine]: 1.78 nM and 82 nM.
The matching figures for `Cc1nnc(N[C@H](C)c2cc(N)cc(C(F)(F)F)n2)c2cc(N3C[C@H]4CC[C@@H]3CN4C)ncc12` [Example 16-6, N-((R)-1-(4-amino-6-(trifluoromethyl)pyridin-2-yl)ethyl)-4-methyl-7-((1R, 4R)-5-methyl-2,5-diazabicyclo[2.2.2]octan-2-yl)pyrido[3,4-d]pyridazin-1-amine]: 6.5 nM and 239 nM.
In the same order, the values of `Cc1c([C@@H](C)Nc2nnc(C)c3cnc(O[C@H]4CCN(C)C4)cc23)cccc1C(F)(F)F` [Example 12-11] are 8.76 nM and 142 nM.
Consider `Cc1cc(F)ccc1[C@@H](C)Nc1nnc(C)c2cnc(N3CC(C)(O)C3)cc12` [Example 12-57], for which the Ki in experiment [1] (setting [3]) was 92.2 nM. Also, in experiment [2] (setting [4]), the half-inhibitory concentration (IC50) stood at 1860 nM.
As for `COc1c(C#N)cccc1[C@@H](C)Nc1nnc(C)c2cnc(N3CC(C)(O)C3)cc12` [Example 17-3, (R)-3-(1-((7-(3-hydroxy-3-methylazetidin-1-yl)-4-methylpyrido[3,4-d]pyridazin-1-yl)amino)ethyl)-2-methoxybenzonitrile], the Ki in experiment [1] (setting [3]) stood at 12.8 nM. Besides, in experiment [2] (setting [4]), the concentration for half-maximal inhibition (IC50) is 188 nM.
Take `Cc1c([C@@H](C)Nc2nncc3ccc(N4CC(=O)N(C)CC4C)cc23)cccc1C(F)(F)F` (stereo partly drawn) [Example 1-26, 1,5-dimethyl-4-(4-(((R)-1-(2-methyl-3-(trifluoromethyl)phenyl)ethyl)amino)phthalazin-6-yl)piperazin-2-one]: in experiment [1] (setting [3]), the Ki amounted to 1.16 nM. The IC50 in experiment [2] (setting [4]) worked out at 57 nM.
In the same order, the values of `Cc1c([C@@H](C)Nc2nnc(C)c3ccc(N4CCN(C)C5(CC5)C4)cc23)cccc1C(F)(F)F` [Example 10-33, (R)-4-methyl-N-(1-(2-methyl-3-(trifluoromethyl)phenyl)ethyl)-7-(4-methyl-4,7-diazaspiro[2.5]octan-7-yl)phthalazin-1-amine] are 0.69 nM and 275 nM.
As for `Cc1c([C@@H](C)Nc2nnc(C)c3ccc(N4CC(N(C)C)C4)cc23)cccc1C(F)(F)F` [Example 10-46, (R)-7-(3-(dimethylamino)azetidin-1-yl)-4-methyl-N-(1-(2-methyl-3-(trifluoromethyl)phenyl)ethyl)phthalazin-1-amine formate salt], the Ki in experiment [1] was 1.13 nM. This compound yielded an IC50 in experiment [2] (Homo sapiens, MKN-1) of 157 nM.
`Cc1c([C@@H](C)Nc2nnc(C)c3ccc(N4CCOCC4)cc23)cc(F)cc1C(F)(F)F` [Example 21-8, (R)—N-(1-(5-fluoro-2-methyl-3-(trifluoromethyl)phenyl)ethyl)-4-methyl-7-morpholinophthalazin-1-amine]: the Ki in experiment [1] (setting [3]) was 3.17 nM. Moreover, the 50% inhibitory concentration (IC50) in experiment [2] (setting [4]) came out at 90 nM.
Consider `Cc1nnc(N[C@H](C)c2ccc(F)cc2F)c2cc(N3CC(C)(N(C)C)C3)ncc12` [Example 12-49], for which the inhibitory constant (Ki) in experiment [1] (setting [3]) came out at 39.7 nM. Further, the IC50 in experiment [2] (setting [4]) is 161 nM.
The matching figures for `CNCc1ccccc1-c1ccc([C@@H](C)Nc2nnc(C(F)(F)F)c3ccc(N4CCOCC4)cc23)s1` [Example 10-2, (R)—N-(1-(5-(2-((methylamino)methyl)phenyl)thiophen-2-yl)ethyl)-7-morpholino-4-(trifluoromethyl)phthalazin-1-amine]: 14.9 nM and 1370 nM.

Values taken from patent US11702418B2, “SOS1 inhibitors” (priority 2019, dated 2023).
